Measurements published in patent US20210040134A1, “COMBINATIONS OF MACROLIDE COMPOUNDS AND IMMUNE CHECKPOINT INHIBITORS” (ISR IMMUNE SYSTEM REGULATION HOLDING AB (PUBL), priority 2018, published 2021).

Key:
[1] = tested on: peripheral blood mononuclear cells (PBMC); assay: Marker expression on stimulated PBMC by flow cytometry; type: cell-based, human; conditions: 24 h
Protocol: Human peripheral blood mononuclear cells (PBMCs) were purified from healthy donors with Ficoll-Paque density centrifugation. Cells were cultured in complete RPMI-1640 media (Invitrogen) supplemented with 25 mM HEPES, L-glutamine, Sodium pyruvate (Sigma), 10% fetal bovine serum, 100 μg/mL penicillin and 100 μg/mL streptomycin (Hyclone) for 24-72 hours in 37° C., 5% CO2 and stimulated with and increasing concentrations of compound 1 and 2. Cells were then washed in PBS and stained with monoclonal antibodies specific for cell surface markers (BD Pharmingen) and analysed with flow cytomtetry using a BD FACS Canto II flow cytometer. All samples were tested in duplicates.
Human peripheral blood mononuclear cells (PBMCs) were purified from healthy donors with Ficoll-Paque density centrifugation. Cells were cultured in complete RPMI-1640 medium (Invitrogen) supplemented with 25 mM HEPES, L-glutamine, Sodium pyruvate (Sigma), 10% fetal bovine serum, 100 μg/mL penicillin and 100 μg/mL streptomycin (Hyclone). […] The cells were removed from the plate, washed in PBS and analysed for expression of cell specific surface markers and MHC class I with flow cytomtery using monoclonal antibodies from BD Pharmingen and a FACS Canto II flow cytometer.

[2] = tested on: PBMCs from CMV infected donors; assay: IFN-gamma secretion from PBMCs of CMV infected donors with CMV antigen (cytometric bead assay); type: cell-based, human; conditions: 3 days
Text: FIG. 9: Interferon-gamma secretion (as measured by cytometric bead assay) from PBMCs (from a CMV+ donor) grown with CMV peptides in the presence or absence of compound 1 or A for 5 days.
Study 8: PBMCs from CMV infected donors cultured in the presence of CMV antigen where either untreated or exposed to compound 1 or compound 2 for 3 days.

CC[C@H]1OC(=O)[C@H](C)[C@@H](O[C@H]2C[C@@H](N(C)C)[C@H](O)[C@@H](C)O2)[C@H](C)[C@@H](O)[C@](C)(O)C[C@@H](C)CN(C)[C@H](C)[C@@H](O)[C@]1(C)O [Compound 1]
activation marker CD69 on CD4+ T cells and B cells ([1]; 1 μM): upregulated
MHC class I molecule (HLA-ABC) on T- and B-cells [1]: upregulation
IFN-gamma secretion [2]: induced secretion of high levels of IFN-gamma
